Measurements published in ChEMBL document CHEMBL5241099, “Targeting mutated GTPase KRAS in tumor therapies” (Eur J Med Chem, 2021).

Columns and labels:
[1] = Inhibition of ERK phosphorylation in human MIA PaCa-2 cells; type: cell-based
[2] = tested on: GTPase KRas (Homo sapiens), P01116 [G12C]; test: Binding affinity to KRAS G12C mutant (unknown origin) assessed as covalent bond formation by measuring Kobs/[I] ratio
[3] = Inhibition of SOS1/KRAS (unknown origin) protein-protein interaction; set-up: species or system Homo sapiens
[4] = biological target: GTPase KRas (Homo sapiens, UniProt P01116, G12C); test: Inhibition of KRAS G12C mutant in human NCI-H358 cells incubated for 6 hrs by LC-MS/MS analysis; type: cell-based
[5] = biological target: GTPase KRas (Homo sapiens, UniProt P01116, G12V); test: Binding affinity to GppNHp-tagged KRAS G12V mutant (unknown origin)
[6] = tested on: NIH3T3; test: Antiproliferative activity against mouse NIH3T3 cells transfected with HRAS G12V mutant assessed as inhibition of cell growth incubated for 14 days by dissecting microscope based colony counting assay; type: functional; settings: NIH3T3, 336 h
[7] = tested on: SW480; test: Antitumor activity against human SW480 cells xenografted in athymic nude mouse assessed as inhibition of tumor growth at 80 mg/kg, po administered 5 days a week for 17 to 20 days relative to control; type: functional; settings: time 17-20 day
[8] = biological target: GTPase HRas (Homo sapiens, UniProt P01112); test: Inhibition of GST-tagged HRAS (1 to 166 residues) (unknown origin) assessed as inhibition of mSOS1 mediated nucleotide exchange by [35S]GTPgammaS based liquid scintillation counting method
[9] = Inhibition of ERK phosphorylation in human NCI-H358 cells; type: cell-based
[10] = Inhibition of Ras GTPase activation in HEK293T cells; type: cell-based, Homo sapiens
[11] = tested on: HT-1080; test: Cytotoxicity against human HT-1080 cells harboring NRAS Q61K mutant assessed as inhibition of cell growth incubated for 72 hrs by celltiter-glo luminescent cell viability assay; type: functional, cell-based; settings: HT-1080, 72 h

`C=CC(=O)N1CCN(c2nc(=O)n(-c3c(C)ccnc3C(C)C)c3nc(-c4c(O)cccc4F)c(F)cc23)[C@@H](C)C1` [SOTORASIB] gave an IC50 [1] of 0.068 µM.

Work on `C=CC(=O)N1CC(NC(=O)Cn2cc(C(=O)N3CCc4c(cccc4OC)C3)c3cc(Br)ccc32)C1` yielded a Ratio [2] of 230 M⁻¹ s⁻¹.

`COc1cc2ncnc(N[C@H](C)c3ccccc3)c2cc1OC` showed an IC50 [3] of 1.6 µM.

For `C=CC(=O)N1CCN(C(=O)CNc2cc(I)c(Cl)cc2O)CC1`, the IC50 [4] was 100 µM.

`C=CC(=O)N1CC(NC(=O)COc2ccc(Br)cc2NC(=O)c2cc(C)no2)C1` gave a Ratio [2] of 2 M⁻¹ s⁻¹.

`O=C(NCC1COc2ccccc2O1)c1ccco1` (stereo unspecified) gave a Kd [5] of 235 µM.

`Cc1ccc(NC(=S)NNc2c([N+](=O)[O-])cc(C(F)(F)F)cc2[N+](=O)[O-])cc1Cl` showed an IC50 [6] of 0.5 µM, an inhibition in vivo at 80 mg/kg [7] of 40% and an IC50 [8] of 20 µM.

Compound `C=CC(=O)N1CCN(c2ncnc3c2CCN(c2cc(O)cc4ccccc24)C3)CC1` has an IC50 [9] of 7.6 µM.

For `Cc1[nH]c2cc(Cl)cc(Cl)c2c1CCN`, the EC50 [10] was 15.8 µM.

For `C=CC(=O)N1CC(N2CCN(C(=O)CNc3cc(Cl)c(Cl)cc3O)CC2)C1`, the IC50 [4] was 50 µM.

`COc1nc(-c2cccc3c2OCCO3)ccc1Nc1ccc(CN(C)C)cc1` gave an IC50 [11] of 10 µM.

`O=[N+]([O-])c1cc(C(F)(F)F)cc([N+](=O)[O-])c1NNC(=S)Nc1ccc(F)cc1` gave an IC50 [6] of 1.4 µM and an IC50 [8] of 100 µM.

With `COc1cc2nc(C)nc(N[C@H](C)c3cc(N)cc(C(F)(F)F)c3)c2cc1O[C@H]1CCOC1` the IC50 [3] was 0.005 µM.
